# Measurements from patent US8247211B2, “Glycopeptide antibiotics” (American Cyanamid Company, priority 2001, dated 2012).
# Columns and labels:
# Test in all cases: In vitro antibacterial evaluation: minimum inhibitory concentration (MIC), broth dilution method
# Format in all cases: cell-based
# Streptococcus sp. = settings: 18 hours at 35° C.
# How it was run: (§1)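 Inoculum: 5×10^5 CFU/mL. Range: 64-0.06 μg/mL. Medium: Muller-Hinton II […]; NCCLS M7-A2 broth dilution. Endpoint: lowest concentration inhibiting growth. Strains include methicillin-, penicillin- and/or vancomycin-resistant clinical isolates.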
# Enterococcus sp. = settings: 18 hours at 35° C.
# How it was run: as §1
# Escherichia coli = settings: 18 hours at 35° C.
# How it was run: as §1
# Staphylococcus sp. = test system: Staphylococcus sp.
# How it was run: as §1
# [1] = broth dilution, inoculum 5×10^5 CFU/mL
compound,measurement,setting,value
"CCCC(C)C1OCC2OC(OC3C(CO)OC(Oc4ccc(CC5NC(=O)C(C(C)c6ccc(Cl)cc6)NC(=O)CNC(=O)C(CO)NC(=O)C(C(O)C6CNC(=N)N6C6OC(CO)C(O)C(O)C6O)NC(=O)C(C(O)C6CNC(=N)N6)NC5=O)cc4)C(O)C3O)C(O)C(O)C2O1 (stereo not drawn) [Example 194, Cyclo[glycyl-4-chloro-β-methylphenylalanyl-O-[4-O-[4,6-O-(2-methylpentylidene)hexopyranosyl]hexopyranosyl]tyrosyl-3-(2-iminoimidazolidin-4-yl)seryl-3-(3-hexopyranosyl-2-iminoimidazolidin-4-yl)serylseryl]]",MIC Streptococcus agalactiae (GC 4564),Streptococcus sp.; Streptococcus agalactiae (GC 4564),<0.06 µg/mL
same,MIC Streptococcus pneumoniae (ATCC 6301),Streptococcus sp.; Streptococcus pneumoniae (ATCC 6301),0.25 µg/mL
same,MIC Streptococcus pneumoniae (GC 1894),Streptococcus sp.; Streptococcus pneumoniae (GC 1894),0.12 µg/mL
same,MIC Streptococcus pneumoniae (GC 4565),Streptococcus sp.; Streptococcus pneumoniae (GC 4565),<0.06 µg/mL
same,MIC Streptococcus pyogenes (GC 4563),Streptococcus sp.; Streptococcus pyogenes (GC 4563),<0.06 µg/mL
same,MIC Streptococcus agalactiae (GC 4564),Streptococcus sp.; [1],<0.06 µg/mL
same,MIC Streptococcus pneumoniae (ATCC 6301),Streptococcus sp.; [1],0.25 µg/mL
same,MIC Streptococcus pneumoniae (GC 1894),Streptococcus sp.; [1],0.12 µg/mL
same,MIC Streptococcus pneumoniae (GC 4565),Streptococcus sp.; [1],<0.06 µg/mL
same,MIC Streptococcus pyogenes (GC 4563),Streptococcus sp.; [1],<0.06 µg/mL
same,MIC Enterococcus avium (GC 4558),Enterococcus sp.; Enterococcus avium (GC 4558),2 µg/mL
same,MIC Enterococcus faecalis (ATCC 29212),Enterococcus sp.; Enterococcus faecalis (ATCC 29212),2 µg/mL
same,MIC Enterococcus faecalis (GC 2242),Enterococcus sp.; Enterococcus faecalis (GC 2242),1 µg/mL
same,MIC Enterococcus faecalis (GC 2691),Enterococcus sp.; Enterococcus faecalis (GC 2691),2 µg/mL
same,MIC Enterococcus faecalis (GC 3059),Enterococcus sp.; Enterococcus faecalis (GC 3059),1 µg/mL
same,MIC Enterococcus faecalis (GC 4552),Enterococcus sp.; Enterococcus faecalis (GC 4552),1 µg/mL
same,MIC Enterococcus faecalis (GC 4553),Enterococcus sp.; Enterococcus faecalis (GC 4553),2 µg/mL
same,MIC Enterococcus faecalis (GC 4554),Enterococcus sp.; Enterococcus faecalis (GC 4554),1 µg/mL
same,MIC Enterococcus faecalis (GC 6189),Enterococcus sp.; Enterococcus faecalis (GC 6189),0.5 µg/mL
same,MIC Enterococcus faecium (GC 2243),Enterococcus sp.; Enterococcus faecium (GC 2243),1 µg/mL
same,MIC Enterococcus faecium (GC 4556),Enterococcus sp.; Enterococcus faecium (GC 4556),1 µg/mL
same,MIC Enterococcus faecium (GC 4557),Enterococcus sp.; Enterococcus faecium (GC 4557),2 µg/mL
same,MIC Enterococcus avium (GC 4558),Enterococcus sp.; [1],2 µg/mL
same,MIC Enterococcus faecalis (ATCC 29212),Enterococcus sp.; [1],2 µg/mL
same,MIC Enterococcus faecalis (GC 2242),Enterococcus sp.; [1],1 µg/mL
same,MIC Enterococcus faecalis (GC 2691),Enterococcus sp.; [1],2 µg/mL
same,MIC Enterococcus faecalis (GC 3059),Enterococcus sp.; [1],1 µg/mL
same,MIC Enterococcus faecalis (GC 4552),Enterococcus sp.; [1],1 µg/mL
same,MIC Enterococcus faecalis (GC 4553),Enterococcus sp.; [1],2 µg/mL
same,MIC Enterococcus faecalis (GC 4554),Enterococcus sp.; [1],1 µg/mL
same,MIC Enterococcus faecalis (GC 6189),Enterococcus sp.; [1],0.5 µg/mL
same,MIC Enterococcus faecium (GC 2243),Enterococcus sp.; [1],1 µg/mL
same,MIC Enterococcus faecium (GC 4556),Enterococcus sp.; [1],1 µg/mL
same,MIC Enterococcus faecium (GC 4557),Enterococcus sp.; [1],2 µg/mL
same,MIC Escherichia coli (GC 4559),Escherichia coli; Escherichia coli (GC 4559),32 µg/mL
same,MIC Escherichia coli (GC 4560),Escherichia coli; Escherichia coli (GC 4560),2 µg/mL
same,MIC Staphylococcus aureus (ATCC 29213),Staphylococcus sp.; strain ATCC 29213,0.5 µg/mL
same,MIC Staphylococcus aureus (GC 1131),Staphylococcus sp.; strain GC 1131,1 µg/mL
same,MIC Staphylococcus aureus (GC 3051),Staphylococcus sp.; strain GC 3051,1 µg/mL
same,MIC Staphylococcus aureus (GC 3053),Staphylococcus sp.; strain GC 3053,1 µg/mL
same,MIC Staphylococcus aureus (GC 4541),Staphylococcus sp.; strain GC 4541,0.5 µg/mL
same,MIC Staphylococcus aureus (GC 4542),Staphylococcus sp.; strain GC 4542,0.5 µg/mL
same,MIC Staphylococcus aureus-SMITH (GC 4543),Staphylococcus sp.; strain GC 4543,0.5 µg/mL
same,MIC Staphylococcus aureus (GC 4544),Staphylococcus sp.; strain GC 4544,2 µg/mL
same,MIC Staphylococcus aureus (GC 4545),Staphylococcus sp.; strain GC 4545,1 µg/mL
same,MIC Staphylococcus haemolyticus (GC 4546),Staphylococcus sp.; strain GC 4546,0.5 µg/mL
same,MIC Coagulase Negative Staphylococcus (GC 4547),Staphylococcus sp.; strain GC 4547,1 µg/mL
same,MIC Coagulase Negative Staphylococcus (GC 4548),Staphylococcus sp.; strain GC 4548,0.5 µg/mL
same,MIC Coagulase Negative Staphylococcus (GC 4549),Staphylococcus sp.; strain GC 4549,0.5 µg/mL
same,MIC Coagulase Negative Staphylococcus (GC 4551),Staphylococcus sp.; strain GC 4551,1 µg/mL
same,MIC Coagulase Negative Staphylococcus (GC 6257),Staphylococcus sp.; strain GC 6257,0.5 µg/mL
